PubChem BioAssay AID2060504 (Molecular Pharmacology Branch, DTP, NCI, 2025)

System: 636577-100-R-J1-PDC complex spheroid viability
Assay: Anticancer human tumor 636577-100-R-J1-PDC patient-derived endometrial adenocarcinoma cell line growth inhibition [GQUAD]
Conditions: for IC50: curve of first compound; for viability, T/C: stronger effect = lower value; active means viability on the fitted dose curve at most 10% of control; inactive means the rest
Description: DNA G-quadruplex Stabilizer Agents in Combinations in Complex Spheroids
A high-throughput screen of multi-cell type tumor spheroids was designed to identify active combinations of DNA G-quadruplex stabilizer agents and targeted small molecules. Complex spheroids include a stromal component modeled by human endothelial cells (HUVEC) and fibroblasts modeled by human mesenchymal stem cells (MSCs). The concentration ranges selected for each drug and investigational agent were based upon clinically achievable concentrations if the clinical Cmax of the agent was known.
Compounds. The drugs and investigational agents: pidnarulex (CX-5461; NSC782164), APTO-253 (NSC789042), BRACO-19 (NSC847499), peposertib (NSC802822), ceralasertib (NSC780249), elimusertib (NSC800525), camonsertib (NSC841442), AZD-1390 (NSC803789), olaparib (NSC753686), talazoparib (NSC767125), ART-558 (NSC835418), sotorasib (NSC818433), MRTX-1133 (NSC836407), SN-38 (NSC673596), topotecan (NSC609699), etoposide (NSC141540), doxorubicin (NSC123127), gemcitabine (NSC613327), 5-fluorouracil (NSC19893), paclitaxel (NSC125973), vemurafenib (NSC761431), panobinostat (NSC761190), R-306465 (JNJ-16241199; NSC773264), adavosertib (NSC754352), TP-3654 (NSC805149), carboplatin (NSC241240), KSQ-4279 (NSC840948), and staurosporine (NSC755774) were obtained from the National Cancer Institute (NCI) Developmental Therapeutics Program Chemical Repository (34). The FDA-approved anticancer drug set is available from the NCI Developmental Therapeutics Program. […] The stock solutions were prepared in dimethyl sulfoxide (DMSO, Sigma-Aldrich, St. Louis, MO, cat. D2650) at 800-fold the tested concentration and stored at -70 degrees C prior to their use. All drugs and investigational agents were tested over a range starting from a high concentration at or near the clinical Cmax and decreasing in half-log increments. If the clinical Cmax for an agent had not been determined, the highest concentration tested was 10 microM.
2.3 Cell Culture. All cells were maintained in an incubator at 37 degrees C and 5% CO2 with 95% humidity. The PDC lines were cultured according to standard operating procedures established by the NCI PDMR. All PDCs were thawed and cultured in Matrigel-coated flasks prepared with a working solution of 1X Ham's F-12 nutrient mix, without supplementation (Invitrogen, cat. 11765054), 100 U/mL penicillin-streptomycin (Invitrogen, cat. 15140122), and 2.5% Matrigel (Corning Inc., cat. 354248) for the first three passages. The 857933-349-R-J2-PDC line was cultured in 6C/Colon 1B media, which includes advanced DMEM/F-12 (Thermo Fisher Scientific, cat. 12634028), 10 mM HEPES (Thermo Fisher Scientific, cat. 15630080), 1X GlutaMAX supplement (Thermo Fisher Scientific, cat. 35050061), 0.1 mg/mL primocin (InvivoGen, cat. ant-pm-2), 10% defined fetal bovine serum, heat inactivated (HyClone Laboratories Inc., cat. SH30070.03HI), 50% L-WRN conditioned media (ATCC, cat. CRL-3276), 1.25 mM N-Acetyl-L-cysteine (Sigma-Aldrich, cat. A9165), 10 mM nicotinamide (Sigma-Aldrich, cat. N0636), 1X B-27 supplement (Thermo Fisher Scientific, cat. 17504044), 1X N-2 supplement (Thermo Fisher Scientific, cat. 17502048), 10 microM Y-27632 dihydrochloride (Tocris Bioscience, cat. 1254), and 50 ng/mL human EGF recombinant protein (Thermo Fisher Scientific, cat. PHG0311). The 485176-168-R4-J1-PDC line was cultured in Panc media, which includes all 6C/Colon 1B media components plus 100 ng/mL human FGF-10 (Thermo Fisher Scientific, cat. 100-26), 500 nM SB-431542 (Selleckchem, cat. S1067), and gastrin (Tocris, cat. 3006).
[…]

[1] = second compound 0.0316 µM, first compound 0.0316 µM
[2] = second compound 0.0316 µM, first compound 0.1 µM
[3] = second compound 0.0316 µM, first compound 0.316 µM
[4] = second compound 0.0316 µM, first compound 1 µM
[5] = second compound 0.0316 µM, first compound 3.16 µM
[6] = second compound 0.0316 µM, first compound 10 µM
[7] = second compound 0.1 µM, first compound 0.0316 µM
[8] = second compound 0.1 µM, first compound 0.1 µM
[9] = second compound 0.1 µM, first compound 0.316 µM
[10] = second compound 0.1 µM, first compound 1 µM
[11] = second compound 0.1 µM, first compound 3.16 µM
[12] = second compound 0.1 µM, first compound 10 µM
[13] = second compound 0.316 µM, first compound 0.0316 µM
[14] = second compound 0.316 µM, first compound 0.1 µM
[15] = second compound 0.316 µM, first compound 0.316 µM
[16] = second compound 0.316 µM, first compound 1 µM
[17] = second compound 0.316 µM, first compound 3.16 µM
[18] = second compound 0.316 µM, first compound 10 µM
[19] = second compound 1 µM, first compound 0.0316 µM
[20] = second compound 1 µM, first compound 0.1 µM
[21] = second compound 1 µM, first compound 0.316 µM
[22] = second compound 1 µM, first compound 1 µM
[23] = second compound 1 µM, first compound 3.16 µM
[24] = second compound 1 µM, first compound 10 µM
[25] = second compound 3.16 µM, first compound 0.0316 µM
[26] = second compound 3.16 µM, first compound 0.1 µM
[27] = second compound 3.16 µM, first compound 0.316 µM
[28] = second compound 3.16 µM, first compound 1 µM
[29] = second compound 3.16 µM, first compound 3.16 µM
[30] = second compound 3.16 µM, first compound 10 µM
[31] = second compound 10 µM, first compound 0.0316 µM
[32] = second compound 10 µM, first compound 0.1 µM
[33] = second compound 10 µM, first compound 0.316 µM
[34] = second compound 10 µM, first compound 1 µM
[35] = second compound 10 µM, first compound 3.16 µM
[36] = second compound 10 µM, first compound 10 µM
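Further: viability read after seven days of drug exposure.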
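Wherever viability, T/C is given: luminescence signal used as a proxy for viable cells; 100% = DMSO vehicle control wells.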

C=CC(=O)N1CCN(c2nc(=O)n(-c3c(C)ccnc3C(C)C)c3nc(-c4c(O)cccc4F)c(F)cc23)C(C)C1 (centres undefined) + CN(C)c1ccc(Nc2c3ccc(NC(=O)CCN4CCCC4)cc3nc3cc(NC(=O)CCN4CCCC4)ccc23)cc1
> 10 µM: IC50 (second compound 0.0316 µM) | IC50 (second compound 0.1 µM) | IC50 (second compound 0.316 µM) | IC50 (second compound 1 µM)
active: viability, T/C [31] 6.52% | viability, T/C [32] 5.91% | viability, T/C [33] 6.86% | viability, T/C [34] 6.43% | viability, T/C [35] 3.58% | viability, T/C [36] 0.96%
inactive: viability, T/C [1] 82.5% | viability, T/C [2] 60.8% | viability, T/C [3] 114% | viability, T/C [4] 75.2% | viability, T/C [5] 91.9% | viability, T/C [6] 64.8% | viability, T/C [7] 73.5% | viability, T/C [8] 67.1% | viability, T/C [9] 78.9% | viability, T/C [10] 73% | viability, T/C [11] 108% | viability, T/C [12] 75.6% | viability, T/C [13] 79.5% | viability, T/C [14] 63.9% | viability, T/C [15] 88% | viability, T/C [16] 81.2% | viability, T/C [17] 97.5% | viability, T/C [18] 67.4% | viability, T/C [19] 85.9% | viability, T/C [20] 54.3% | viability, T/C [21] 76.3% | viability, T/C [22] 96.9% | viability, T/C [23] 94.5% | viability, T/C [24] 60.3% | viability, T/C [25] 42% | viability, T/C [26] 43.9% | viability, T/C [27] 35.4% | viability, T/C [28] 53.6% | viability, T/C [29] 43.7% | viability, T/C [30] 28.9%
< 0.0316 µM: IC50 (second compound 3.16 µM) | IC50 (second compound 10 µM)

CC(C)n1c(=O)n(C)c2cnc3cc(F)c(-c4ccc(OCCCN5CCCCC5)nc4)cc3c21 + CN(C)c1ccc(Nc2c3ccc(NC(=O)CCN4CCCC4)cc3nc3cc(NC(=O)CCN4CCCC4)ccc23)cc1
< 0.0316 µM: IC50 (second compound 3.16 µM) | IC50 (second compound 10 µM)
active: viability, T/C [31] 7% | viability, T/C [32] 5.49% | viability, T/C [33] 4.48% | viability, T/C [34] 2.77% | viability, T/C [35] 2.25% | viability, T/C [36] 0.79%
inactive: viability, T/C [1] 121% | viability, T/C [2] 101% | viability, T/C [3] 127% | viability, T/C [4] 49.5% | viability, T/C [5] 93.8% | viability, T/C [6] 53.5% | viability, T/C [7] 128% | viability, T/C [8] 102% | viability, T/C [9] 109% | viability, T/C [10] 74.9% | viability, T/C [11] 82.1% | viability, T/C [12] 52.4% | viability, T/C [13] 67.6% | viability, T/C [14] 81.7% | viability, T/C [15] 103% | viability, T/C [16] 63.6% | viability, T/C [17] 71.7% | viability, T/C [18] 46.6% | viability, T/C [19] 60% | viability, T/C [20] 67.8% | viability, T/C [21] 75.9% | viability, T/C [22] 57% | viability, T/C [23] 61.6% | viability, T/C [24] 33.5% | viability, T/C [25] 39% | viability, T/C [26] 36.2% | viability, T/C [27] 30.2% | viability, T/C [28] 27% | viability, T/C [29] 20.6% | viability, T/C [30] 14.5%
8.49 µM: IC50 (second compound 0.316 µM)
4.9 µM: IC50 (second compound 1 µM)
> 10 µM: IC50 (second compound 0.0316 µM) | IC50 (second compound 0.1 µM)
